Data as given in paper PMC6199744, “Development of Chemical Proteomics for the Folateome and Analysis of the Kinetoplastid Folateome” (ACS Infectious Diseases, 2018).

Test system: L. major lysate proteins
Assay: Multitargeted bead mixture chemoproteomics, single concentration competition, proteome-wide
Type: binding
Settings: for fold change: vehicle control = 1

Structure (SMILES): NCCOCCOCC(=O)Nc1nc2ncc(CNc3ccc(C(=O)NC(CCC(=O)O)C(=O)O)cc3)nc2c(=O)[nH]1 (stereo not shown) [compound 6]
- fold change vs vehicle control (protein LMJF.15.0690 HY[…], CONSERVED): 1.26
- fold change (protein LMJF.15.1010 GLUTAMATE DEHYDROGENASE): 1.11
- fold change (protein LMJF.15.1190 HY[…], CONSERVED (cyclic nucleotide-binding domain containing protein, putative)): 1.07
- fold change vs vehicle control (protein LMJF.16.0520 HYPOTHETICAL PROTEIN, CONSERVED): 0.99
- fold change vs vehicle control (protein LMJF.16.0540 ASPARTATE […], PUTATIVE): 1.06
- fold change relative to vehicle control (protein LMJF.16.0760, TRANSALDOLASE, PUTATIVE): 1.36
- fold change vs vehicle control (protein LMJF.16.0940 DYNEIN LIGHT CHAIN, PUTATIVE): 0.92
- fold change relative to vehicle control (protein LMJF.16.1180, COATOMER DELTA SUBUNIT-LIKE PROTEIN): 1.24
- fold change relative to vehicle control (protein LMJF.16.1320, […], PUTATIVE): 1.33
- fold change relative to vehicle control (protein LMJF.16.1420, HY[…], CONSERVED): 1.05
- fold change relative to vehicle control (protein LMJF.17.0081, […] 1-ALPHA): 1.09
- fold change relative to vehicle control (protein LMJF.18.0270, GLYCOGEN SYNTHASE KINASE, PUTATIVE): 1.13
- fold change (protein LMJF.18.0580 PEROXISOMAL ENOYL-COA HYDRATASE, PUTATIVE): 0.98
- fold change relative to vehicle control (protein LMJF.18.0680, CITRATE SYNTHASE, PUTATIVE): 1.1
- fold change vs vehicle control (protein LMJF.18.1010 DYNEIN LIGHT CHAIN 2B, CYTOPLASMIC, PUTATIVE): 0.82
- fold change vs vehicle control (protein LMJF.18.1210 PROLYL-TRNA SYNTHETASE, PUTATIVE,BIFUNCTIONAL AMINOACYL-TRNA SYNTHETASE, PUTATIVE): 1
- fold change vs vehicle control (protein LMJF.18.1370 HEAT SHOCK PROTEIN, PUTATIVE): 1.1
- fold change (protein LMJF.19.0200 ADP,ATP CARRIER PROTEIN 1, MITOCHONDRIAL PRECURSOR, PUTATIVE): 1.1
- fold change vs vehicle control (protein LMJF.19.1120 PROTEASOME REGULATORY NON-ATP-ASE SUBUNIT, PUTATIVE): 0.96
- fold change vs vehicle control (protein LMJF.19.1160 HY[…], CONSERVED): 1.08
- fold change vs vehicle control (protein LMJF.19.1560 INOSINE-5'-MONOPHOSPHATE DEHYDROGENASE): 0.98
- fold change relative to vehicle control (protein LMJF.19.1620, POTASSIUM VOLTAGE-GATED CHANNEL, PUTATIVE): 1.05
- fold change vs vehicle control (protein LMJF.20.1280 SMALL MYRISTOYLATED PROTEIN 4, PUTATIVE): 0.89
- fold change (protein LMJF.21.0810 METHIONYL-TRNA SYNTHETASE, PUTATIVE): 1.03
- fold change (protein LMJF.21.1450 ARGININE N-METHYLTRANSFERASE, TYPE II, PUTATIVE): 0.96
- fold change vs vehicle control (protein LMJF.21.1830 […] 5 SUBUNIT, PUTATIVE,20S […] ALPHA 5, (PUTATIVE)): 1.01
- fold change (protein LMJF.22.0230 AMINO ACID PERMEASE, PUTATIVE): 1.05
- fold change vs vehicle control (protein LMJF.22.0570 […] SUBUNIT 1, PUTATIVE): 1.03
- fold change vs vehicle control (protein LMJF.22.0730 HYPOTHETICAL PROTEIN, CONSERVED): 0.94
- fold change (protein LMJF.22.0770 NADH-CYTOCHROME B5 REDUCTASE, PUTATIVE): 0.79
- fold change relative to vehicle control (protein LMJF.23.0020, HY[…], CONSERVED): 1.46
- fold change relative to vehicle control (protein LMJF.23.0040, PEROXIDOXIN): 0.97
- fold change relative to vehicle control (protein LMJF.23.0080, HY[…], CONSERVED): 1.04
- fold change (protein LMJF.23.0210 ATP-BINDING CASSETTE PROTEIN SUBFAMILY C, MEMBER 1, PUTATIVE): 0.92
- fold change (protein LMJF.23.0370 CYTOCHROME C OXIDASE SUBUNIT 10, PUTATIVE): 0.83
- fold change relative to vehicle control (protein LMJF.23.0540, ACETYL-COA SYNTHETASE, PUTATIVE): 1.23
- fold change vs vehicle control (protein LMJF.23.0560 KINESIN, PUTATIVE): 1.1
- fold change vs vehicle control (protein LMJF.23.1410 HY[…], CONSERVED): 1.01
- fold change relative to vehicle control (protein LMJF.24.0070, HYPOTHETICAL PROTEIN, CONSERVED): 0.93
- fold change (protein LMJF.24.0140 ANKYRIN/TPR REPEAT PROTEIN): 1.06
- fold change (protein LMJF.24.0400 HY[…], CONSERVED (TPR repeat, putative)): 1.02
- fold change relative to vehicle control (protein LMJF.24.1510, IGE-DEPENDENT HISTAMINE-RELEASING FACTOR, PUTATIVE): 1.54
- fold change relative to vehicle control (protein LMJF.24.1630, SUCCINATE DEHYDROGENASE FLAVOPROTEIN, PUTATIVE): 1.08
- fold change relative to vehicle control (protein LMJF.24.2060, TRANSKETOLASE): 1.04
- fold change relative to vehicle control (protein LMJF.25.0010, BETA […] TRANSFERASE): 1.13
- fold change relative to vehicle control (protein LMJF.25.0910, CYCLOPHILIN A): 2.21
- fold change vs vehicle control (protein LMJF.25.1130 CYTOCHROME C OXIDASE VII, PUTATIVE): 0.99
- fold change relative to vehicle control (protein LMJF.25.1180, ATPASE BETA SUBUNIT, PUTATIVE): 1.13
- fold change vs vehicle control (protein LMJF.25.1610 HY[…], CONSERVED): 1.01
- fold change vs vehicle control (protein LMJF.25.1620 HYPOTHETICAL PROTEIN, CONSERVED): 1.1
- fold change (protein LMJF.25.2340 SERINE/THREONINE-PROTEIN KINASE, PUTATIVE,PROTEIN KINASE, PUTATIVE): 0.74
- fold change relative to vehicle control (protein LMJF.26.0630, HYPOTHETICAL PROTEIN, CONSERVED): 0.77
- fold change vs vehicle control (protein LMJF.26.1240 HEAT SHOCK PROTEIN 70-RELATED PROTEIN): 1.06
- fold change (protein LMJF.26.1710 CYTOCHROME C OXIDASE SUBUNIT V, PUTATIVE): 0.98
- fold change vs vehicle control (protein LMJF.26.2480 CDP-DIACYLGLYCEROL--INOSITOL 3-[…], PUTATIVE): 1.06
- fold change vs vehicle control (protein LMJF.26.2560 HYPOTHETICAL PROTEIN, CONSERVED): 0.93
- fold change vs vehicle control (protein LMJF.27.0190 PROTEASOME ALPHA 7 SUBUNIT, PUTATIVE): 0.98
- fold change (protein LMJF.27.0650 HY[…], CONSERVED): 1.15
- fold change (protein LMJF.27.0700 HY[…], CONSERVED): 1.08
- fold change vs vehicle control (protein LMJF.27.0760 GTP-binding protein homologue): 1.08
- fold change vs vehicle control (protein LMJF.27.1060 CYSTEINE DESULFURASE, PUTATIVE): 1.09
- fold change vs vehicle control (protein LMJF.27.1110 MITOCHONDRIAL RNA BINDING PROTEIN 1,GBP21, MRP1): 1
- fold change (protein LMJF.27.1250 HYPOTHETICAL PROTEIN, CONSERVED (Serine-threonine kinase receptor-associated protein, putative)): 0.85
- fold change relative to vehicle control (protein LMJF.27.1390, 60S ACIDIC RIBOSOMAL SUBUNIT PROTEIN, PUTATIVE): 1.07
- fold change (protein LMJF.27.1460 PROTEASOME REGULATORY NON-ATP-ASE SUBUNIT 3, PUTATIVE): 1.1
- fold change vs vehicle control (protein LMJF.28.0110 […] 3 SUBUNIT, PUTATIVE): 1.01
- fold change vs vehicle control (protein LMJF.28.0490 PROPIONYL-COA CARBOXYLASE BETA CHAIN, PUTATIVE): 1.2
